Assay results: patent US11724987B2, “Compositions and methods of treating retinal disease” (Aldeyra Therapeutics, Inc., priority 2005, dated 2023)
One block for each compound: values may come before it.

Tests used:
[1] = vendor value; cited from earlier work
[2] = NMR analysis of RAL reactions (Schiff base condensation and ring formation); settings: for tau (minutes) condense: Schiff base condensation with RAL; for tau (minutes) ring: ring formation after condensation with RAL
[3] = negative control; cited from earlier work
dark adapted rats = experiment: ERG analysis of dark adaptation, dose ranging protocol; assay type: in vivo, rat; settings: i.p.
Experimental: Dark adaptation is the recovery of visual sensitivity following exposure to light. Dark adaptation has multiple components including both fast (neuronal) processes and slow (photochemical) process. Regeneration of visual pigment is related to the slow photochemical process. Dark adaptation rates are measured for several reasons. Night blindness results from a failure to dark adapt (loss of visual light sensitivity). It is possible to find a safe dose for night vision by measuring drug effects on dark adapted visual light sensitivity.
An electroretinogram (ERG) is used measure dark adaptation under normal vs. drug conditions. ERG is the measurement of the electric field potential emitted by retinal neurons during their response to an experimentally defined light stimulus. More specifically, ERG measures retinal field potentials at the cornea after a flash of light (e.g., 50 ms). Field strengths are 10^2 to 10^3 microvolts, originating in retinal cells.
In a typical ERG analysis of dark adaptation experiment, every rat is dark adapted for hours to reach a consistent state of light sensitivity. […]
The ERG measurement is taken after a specific duration of post-bleach dark recovery (e.g., 30 min) determined previously by kinetic analysis (see FIGS. 6a and 6b). […]

human retinal vision = settings: human occupational exposure, absorbed by the skin; cited from earlier work

Structure (SMILES): COC(=O)c1nc(N)sc1Cl [Compound 2]
calculated logP vendor [1]: 1.3

Structure (SMILES): Nc1nccs1 [Compound 3]
calculated logP vendor [1]: 0.8

Structure (SMILES): CC(C)(O)c1nc2ccc(Cl)cc2cc1N [Compound 9]
tau (minutes) condense [2]: 320 min | tau (minutes) ring [2]: 568 min

Structure (SMILES): CCOC(=O)Cc1csc(N)n1 [Compound 4]
calculated logP vendor [1]: 1.4

Structure (SMILES): CCOC(=O)c1csc(N)n1 [Compound 1]
calculated logP vendor [1]: 1.2

Structure (SMILES): CCN(CC)CC(=O)Nc1c(C)cccc1C [lidocaine]
Schiff base formation [3]: does not form a Schiff base

Structure (SMILES): CC(C)(O)c1ccccc1N [Compound 8]
tau (minutes) condense [2]: 122 min | tau (minutes) ring [2]: 109 min

duration of effect on vision (dark adapted rats; rats, ERG): decreases after 3 hours
Structure (SMILES): CCOC(=O)c1cccc(N)c1 [Compound 6, tricaine methane sulfonate]
ERG light sensitivity of dark adapted rats (dark adapted rats; dose ranging, FIG. 7): lowers light sensitivity of dark adapted rats in a dose dependent manner | calculated logP vendor [1]: 1.8 | effect on night vision (human retinal vision): attenuates night vision reversibly
